Source: patent US11976083B2, “Inhibitors of peptidylarginine deiminases” (Gilead Sciences, Inc., priority 2020, dated 2024)

Target: T1, human PAD4 (Homo sapiens, UniProt Q9UM07)
T1 construct: human PAD4 (NM_012387), A2-P663, was PCR amplified; His-SUMO (N, cleaved yes); made in house; host or cells: E. coli BL21(DE3)
Experiment: In vitro PAD4 BAEE biochemical assay
Settings: BAEE substrate 3 mM, 5 nM PAD4, 2 mM calcium chloride; geometric mean of multiple experiments
Method in brief: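 Ammonia produced by BAEE deimination (3 mM substrate, 2 h, 25 °C) was read as fluorescent isoindole after o-phthalaldehyde/DTT derivatization, ex 405 nm/em 535 nm. Human PAD4 at 5 nM final, 2 mM calcium, pH 7.6 MOPS; compound preincubated 30 min. IC50s, normalized to BB-Cl-Amidine and DMSO controls, were geometric-mean averaged.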

T1 sequence (Q9UM07 2-663): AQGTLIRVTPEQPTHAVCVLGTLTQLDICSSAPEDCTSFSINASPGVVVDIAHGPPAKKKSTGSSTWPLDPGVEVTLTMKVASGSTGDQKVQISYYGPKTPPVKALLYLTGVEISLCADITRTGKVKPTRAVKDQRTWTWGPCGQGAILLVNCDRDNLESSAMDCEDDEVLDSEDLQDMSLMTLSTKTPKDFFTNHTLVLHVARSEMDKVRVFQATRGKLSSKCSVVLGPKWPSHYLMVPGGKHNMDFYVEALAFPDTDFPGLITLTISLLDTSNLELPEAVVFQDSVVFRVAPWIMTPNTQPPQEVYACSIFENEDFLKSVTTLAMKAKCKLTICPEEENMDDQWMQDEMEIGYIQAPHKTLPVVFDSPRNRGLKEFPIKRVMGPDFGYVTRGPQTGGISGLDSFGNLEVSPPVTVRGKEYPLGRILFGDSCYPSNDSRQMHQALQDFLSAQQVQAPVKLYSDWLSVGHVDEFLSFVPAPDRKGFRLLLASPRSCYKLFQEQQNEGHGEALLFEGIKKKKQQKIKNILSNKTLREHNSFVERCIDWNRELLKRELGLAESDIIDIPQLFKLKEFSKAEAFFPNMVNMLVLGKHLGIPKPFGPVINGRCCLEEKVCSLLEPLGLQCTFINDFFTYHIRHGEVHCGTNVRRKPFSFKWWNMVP

| IC50 [nM] | SMILES |
| --- | --- |
| 42 | CO[C@@H]1CCN(C(=O)c2ccc3c(c2)nc(-c2cc4ccc5nc4n2CCCCCc2cc(Cl)ncc2C(=O)N[C@@H]5C)n3C2CC2)C[C@@H]1N [Example 652, 17-[5-[(3~{S},4~{R})-3-amino-4-methoxy-piperidine-1-carbonyl]-1-cyclopropyl-benzimidazol-2-yl]-8-chloro-2-methyl-3,7,16,22-tetrazatetracyclo[14.5.2.0^ {5,10}.0^{19,23}] tricosa-1(22),5,7,9,17,19(23), 20-heptaen-4-one] |
| 21 | COc1cc(C(=O)N2[C@H]3CC[C@@H]2[C@H](N)C3)cc2nc(-c3cc4ccc5nc4n3CCCCCCCC(=O)N3CCC[C@H]53)n(C)c12 [Example 125, (2˜{R})-16-[5-[(1˜{R},2˜{R},4˜{S})-2-amino-7-azabicyclo[2.2.1]heptane-7-carbonyl)-7-methoxy-1-methyl-benzimidazol-2-yl]-6,15,21-triazatetracyclo[13.5.2.0^{2,6}.0^{18,22}]docosa-1(21),16,18(22),19-tetraen-7-one] |
| 90 | COc1cc(C(=O)N2CCC[C@@H](N)C2)cc2nc(-c3cc4ccc5nc4n3C[C@@H]3C[C@H]3C(OC)CCCC(=O)N[C@@H]5C)n(C)c12 (stereo partly shown) [Example 270, (3~{R},5~{R},12~{R})-18-[5-[(3~{R})-3-aminopiperidine-1-carbonyl]-7-methoxy-1-methyl-benzimidazol-2-yl]-6-methoxy-12-methyl-1,11,20-triazatetracyclo[11.5.2.0^{3,5}.0^{16,19}] icosa-13(20),14,16(19),17-tetraen-10-one] |
| 145 | COc1cc(C(=O)N2CC[C@@H](OC)[C@@H](N)C2)cc2nc(-c3cc4ccc5nc4n3CC(F)(F)CCCOC3(CC3)C(=O)N[C@@H]5C)n(C)c12 [Example 589, (11~{R})-17-[5-[(3~{S},4~ {R})-3-amino-4-methoxy-piperidine-1-carbonyl]-7-methoxy-1-methyl-benzimidazol-2-yl]-3,3-difluoro-11-methyl-spiro[7-oxa-1,10,19-triazatricyclo[10.5.2.0^ {15,18}]nonadeca-12(19), 13,15(18),16-tetraene-8,1′-cyclopropane]-9-one] |
| 1200 | COc1cc(C(=O)N2[C@H]3CC[C@@H]2[C@H](N)C3)cc2nc(-c3cc4ccc5nc4n3CCCCc3cccc(c3F)C(=O)N[C@@H]5C)n(C)c12 [Example 38, (2~{R})-15-[5-[(1~{R},2~{R},4~{S})-2-amino-7-azabicyclo[2.2.1]heptane-7-carbonyl]-7-methoxy-1-methyl-benzimidazol-2-yl]-22-fluoro-2-methyl-3,14,20-triazatetracyclo[12.5.2.1^{5,9}.0^{17,21}] docosa-1(20),5,7,9(22),15,17(21),18-heptaen-4-one] |
| 43 | COc1cc(C(=O)N2CC[C@@H](OC(F)F)[C@@H](N)C2)cc2nc(-c3cc4ccc5nc4n3CCCCCc3nc4ccccc4nc3C(=O)N[C@@H]5C)n(C)c12 [Example 824, (2~{R})-21-[5-[(3~{S},4~{R})-3-amino-4-(difluoromethoxy)piperidine-1-carbonyl]-7-methoxy-1-methyl-benzimidazol-2-yl]-2-methyl-3,6,13,20,26-pentazapentacyclo [18.5.2.0^{5,14).0^{7, 12}.0^{23,27}]heptacosa-1(26),5,7(12),8,10,13,21, 23(27),24-nonaen-4-one] |
| 683 | COc1cc(C(=O)N[C@H]2CNCC[C@@H]2F)cc2nc(-c3cc4ccc5nc4n3Cc3ccccc3CCCCC(=O)N[C@@H]5C)n(C)c12 [Example 590, ~{N}-[(3~{S},4~{S})-4-fluoro-3-piperidyl]-7-methoxy-1-methyl-2-[(15~{R})-15-methyl-13-oxo-1,14,23-triazatetracyclo[14.5.2.0^ {3,8}.0^{19,22}]tricosa-3(8),4,6,16,18,20,22-heptaen-21-yl] benzimidazole-5-carboxamide] |
| 398 | COC[C@@H]1[C@H](N)CCCN1C(=O)c1cc(OC)c2c(c1)nc(-c1cc3ccc4nc3n1CCCCC[C@@H]1C[C@H]1C(=O)N[C@@H]4C)n2C [Example 411, (2~{R},5~{R},7~{R})-14-[5-[(2~{S},3~{R})-3-amino-2-(methoxymethyl)piperidine-1-carbonyl]-7-methoxy-1-methyl-benzimidazol-2-yl]-2-methyl-3,13,19-triazatetracyclo[11.5.2.0^{5,7}.0^{16,20}] icosa-1(19),14,16(20),17-tetraen-4-one] |
| 120 | COc1cc(C(=O)N2[C@H]3CC[C@@H]2[C@H](N)C3)cc2nc(-c3cc4ccc5nc4n3CCCCCC[C@@](C)(C(F)(F)F)C(=O)N[C@@H]5C)n(C)c12 [Example 12, (8~{R},11~{R})-17-[5-[(1~{R},2~{R},4~{S})-2-amino-7-azabicyclo[2.2.1]heptane-7-carbonyl]-7-methoxy-1-methyl-benzimidazol-2-yl]-8,11-dimethyl-8-(trifluoromethyl)-1,10,19-triazatricyclo[10.5.2.0^{15,18}]nonadeca-12(19),13,15(18),16-tetraen-9-one] |
| 137 | COc1cc(C(=O)N2C[C@H](N)C[C@H](O)C2)cc2nc(-c3cc4ccc5nc4n3CCCCCCC(C)(C)C(=O)N[C@@H]5C)n(C)c12 [Example 536, (11~{R})-17-[5-[(3~{R},5~{S})-3-amino-5-hydroxy-piperidine-1-carbonyl]-7-methoxy-1-methyl-benzimidazol-2-yl]-8,8,11-trimethyl-1,10,19-triazatricyclo[10.5.2.0^ {15,18}]nonadeca-12(19), 13,15(18),16-tetraen-9-one] |
| 4680 | COc1cc(C(=O)N2CCC[C@@H](N)C2)cc2nc(-c3cc4ccc5cc4n3CCCC3CCN(CC3)C(=O)c3ccccc3-5)n(C)c12 [Example 55, 17-[5-[(3~{R})-3-aminopiperidine-1-carbonyl]-7-methoxy-1-methyl-benzimidazol-2-yl]-9,16-diazapentacyclo[14.5.2.2^{9,12).0^{2,7}.0^ {19,23}]pentacosa-1(22),2,4,6,17,19(23),20-heptaen-8-one] |
| 185 | C[C@H]1NC(=O)[C@@H]2C[C@H]2CCCCCn2c(-c3nc4cc(C(=O)N5CC[C@@H](OC(F)F)[C@@H](N)C5)cc5c4n3CCO5)cc3ccc1nc32 [Example 734, (2~{R},5~{R},7~{R})-14-[6-[(3~{S},4~{R})-3-amino-4-(difluoromethoxy)piperidine-1-carbonyl]-9-oxa-1,3-diazatricyclo[6.3.1.0^{4,12}]dodeca-2,4,6,8(12)-tetraen-2-yl]-2-methyl-3,13,19-triazatetracyclo[11.5.2.0^ {5,7}.0^{16,20}]icosa-1(19), 14,16(20),17-tetraen-4-one] |
| 59 | C[C@H]1NC(=O)CCOC[C@@H]2C[C@@H]2Cn2c(-c3nc4cc(C(=O)N[C@H]5CNCC[C@@H]5F)c(F)cc4n3C3CC3)cc3ccc1nc32 [Example 622, 1-cyclopropyl-6-fluoro-~ {N}-[(3~{S},4~{S})-4-fluoro-3-piperidyl]-2-[(3~{S},5~{R},12~{R})-12-methyl-10-oxo-7-oxa-1,11,20-triazatetracyclo[11.5.2.0^ {3,5}.0^{16,19}]icosa-13(20),14,16(19), 17-tetraen-18-yl] benzimidazole-5-carboxamide] |
